The text below walks through data of publication PMC8645223, “Development of a simple and miniaturized sandwich-like fluorescence polarization assay for rapid screening of SARS-CoV-2 main protease inhibitors” (Cell & Bioscience, 2021).

In series [1] the target is T1, SARS-CoV-2 Mpro (Severe acute respiratory syndrome coronavirus 2, UniProt P0DTD1). Put plainly: sandwich-like FP screening assay. The format is biochemical.
The target in series [2] is T1, SARS-CoV-2 Mpro. Put plainly: FRET assay, inhibition of Mpro proteolytic activity. Particulars: for IC50: IC50, FRET assay. The format is biochemical. The method, then:
As described previously, the inhibitory activity of dieckol against Mpro was preformed using a FRET assay. In brief, 50 µL sample of Mpro (0.4 µM) was preincubated with the indicated concentrations of dieckol (initial concentration: 100 µM, 8 two-fold dilutions) at RT for 35 min in FP assay buffer, and the reaction was initiated by adding 5 µM FRET substrate. DMSO and GC-376 (1 µM) was used as a negative and positive control, respectively. The RFU change was separately measured as described previously every second for 3 min by a microplate reader. The VI was calculated by a slope of the linear regression in the first 30 s, and the IC50 value was calculated using the following equation:3 Dieckolinhibition(%)=1-VIDieckol/VIDMSO×100%
To clarify the inhibitory mechanism of dieckol, the fixed concentrations of dieckol (0, 2, 4, 6 µM) were separately added to 50 µL sample of Mpro (0.4 µM), and the mixture was preincubated for 10 min at RT. After adding 5 µM FRET substrate, the VI was measured using a FRET assay. The inhibition mechanism of dieckol was inferred using the LB plot and a Ki value was generated by its secondary plot.

The target in series [3] is T1, SARS-CoV-2 Mpro. Put plainly: SPR binding assay. As to the method:
The binding affinity between dieckol and Mpro was measured using a real-time SPR spectroscopy instrument (Reichert 2SPR, Buffalo, USA). In all, 20 µL Mpro (1.6 mg/mL) in 10 mM NaAc buffer (pH5.5) was immobilized to a surface activated CM5 gold biosensor (Reichert Inc., New York, USA), and the active sites were quenched with 1 M ethanolamine buffer (pH8.0). After washing the sample loop, an indicated concentration of dieckol (0, 6.25, 12.5, 25 µM) was separately injected on the surface of the Mpro-captured biosensor at RT. The binding time of the analyte to the ligand was 90 s, and the dissociation kinetic was recorded during 330 s. Finally, the real RIU was continuously monitored, and the RIU can be related to arbitrary resonance unit (RU) as 1 µRIU = 0.733 RU. The KD value was calculated using the analyte binding kinetic curve plotted by Trace Drawer software (Ridgeview Instruments, Sweden).
For orientation: Surface plasmon resonance follows binding to a sensor surface in real time, without labels.

Series [4] has as its system COc1ccc2c(CC(=O)N[C@@H](C)C(=O)N[C@H](C(=O)N[C@@H](CC(C)C)C(=O)N[C@@H](CCC(N)=O)C(=O)N[C@@H](CO)C(=O)NCC(=O)N[C@@H](Cc3ccccc3)C(=O)N[C@@H](CCCNC(=N)N)C(=O)N[C@@H](CCCCNc3ccc([N+](=O)[O-])cc3[N+](=O)[O-])C(=O)N[C@@H](CCCCN)C(N)=O)C(C)C)cc(=O)oc2c1. Put plainly: purified protein, by the assay type. The note with it: pH 8.0.

Regarding `Oc1cc(O)cc(Oc2c(O)cc(O)c3c2Oc2c(O)cc(Oc4c(O)cc(Oc5c(O)cc(O)c6c5Oc5c(O)cc(O)cc5O6)cc4O)cc2O3)c1` [dieckol], the 50% inhibitory concentration (IC50) at SARS-CoV-2 Mpro [1] (absence of DTT) was 2.9 ± 0.2 µM; on SARS-CoV-2 Mpro [1] (presence of 1 mM DTT), 4.5 ± 0.4 µM; on SARS-CoV-2 Mpro [2] (absence of DTT) it was 1.8 ± 0.2 µM; on SARS-CoV-2 Mpro [2] (presence of 1 mM DTT), 3.8 ± 0.3 µM. For the same compound, the inhibition constant Ki on SARS-CoV-2 Mpro [2] is 3.3 µM. The inhibition mechanism result on SARS-CoV-2 Mpro [2] (Lineweaver-Burk plot, same Vmax, varying Km) is “competitive inhibitor”. Also, on SARS-CoV-2 Mpro [3], binding was put at a Kd of 0.22 µM. On SARS-CoV-2 Mpro [3] (SPR dissociation rate), this compound came in with a kd of 0.000226 s⁻¹.

Turning to “SARS-CoV-2 Mpro (Severe acute respiratory syndrome coronavirus 2)”, in series [4], the Km is 19.78 µM.

One may read the IC50 as the midpoint of a concentration-inhibition curve. As a reminder, the Ki is a dissociation constant, usually derived from enzyme kinetics or from competition with a known ligand. In general, Kd refers to the concentration at which binding is half-saturated. A low value points to a tighter complex. One may read the Km as the substrate concentration at which the rate is half of its maximum.
